# In PubChem BioAssay (NCI):
#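 All cell lines were grown in 96-well plates and treated with compound for 48 hours. TGI denotes the concentration required for complete inhibition of growth.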
# Key:
# Assay in all cases: DTP human tumour cell line panel, 48 h
# A549 NSCLC = test system: A549 NSCLC
# M14 melanoma = test system: M14 melanoma
# SF-539 CNS = test system: SF-539 CNS
# SN12C renal = test system: SN12C renal
# T-47D breast = test system: T-47D breast
# OVCAR-5 ovarian = test system: OVCAR-5 ovarian
# UO-31 renal = test system: UO-31 renal
# SNB-75 CNS = test system: SNB-75 CNS
# K-562 leukemia = test system: K-562 leukemia
# HCT-15 colon = test system: HCT-15 colon
# SW-620 colon = test system: SW-620 colon
# HCT-116 colon = test system: HCT-116 colon
# NCI-H226 lung = test system: NCI-H226 lung
# SR leukemia = test system: SR leukemia
# MALME-3M melanoma = test system: MALME-3M melanoma
# COLO 205 colon = test system: COLO 205 colon
# SF-295 CNS = test system: SF-295 CNS
# UACC-257 melanoma = test system: UACC-257 melanoma
# MDA-N = test system: MDA-N
# SK-MEL-2 melanoma = test system: SK-MEL-2 melanoma
SMILES,TGI (A549 NSCLC) [µM],TGI (M14 melanoma) [µM],TGI (SF-539 CNS) [µM],TGI (SN12C renal) [µM],TGI (T-47D breast) [µM],TGI (OVCAR-5 ovarian) [µM],TGI (UO-31 renal) [µM],TGI (SNB-75 CNS) [µM],TGI (K-562 leukemia) [µM],TGI (HCT-15 colon) [µM],TGI (SW-620 colon) [µM],TGI (HCT-116 colon) [µM],TGI (NCI-H226 lung) [µM],TGI (SR leukemia) [µM],TGI (MALME-3M melanoma) [µM],TGI (COLO 205 colon) [µM],TGI (SF-295 CNS) [µM],TGI (UACC-257 melanoma) [µM],TGI (MDA-N) [µM],TGI (SK-MEL-2 melanoma) [µM]
O=C1c2ccccc2C(=O)N1CC1S(=O)(=O)OCCOS1(=O)=O,> 100,> 100,> 100,> 100,> 100,> 100,> 100,> 100,> 100,> 100,> 100,> 100,> 100,> 100,> 100,> 100,> 100,> 100,> 100,
CN(C)CCCNc1ccc2c(=O)n(CCN(C)C)c(=O)n3c4ccccc4c(=O)c1c23,10.5,1.59,2.02,0.941,13.7,1.89,2.08,7.51,,1.13,,,2.53,2.96,3.99,1.22,1.69,2.05,0.312,2.52
Cc1c(CCN2CCOCC2)c(N2CCOCC2)n2c(nc3ccccc32)c1C#N,> 10,> 10,> 10,> 10,> 10,> 10,> 10,> 10,> 10,> 10,> 10,> 10,> 10,> 10,> 10,> 10,> 10,> 10,> 10,
CO[C@@H]1C[C@H]2[C@@H]3CC[C@H]([C@@H](C)CO)[C@@]3(C)CC[C@@H]2[C@@]2(C)CC[C@H]3C[C@]312,> 100,69.8,> 100,77.1,> 100,> 100,98.8,> 100,60.5,> 100,> 100,> 100,59.9,> 100,41.2,31.4,89.2,71.9,> 100,
N#CC1C(=O)SC2c3ccccc3C(=O)c3ccccc3C12 (centres undefined),> 10,> 10,> 10,> 10,> 10,> 10,> 10,> 10,> 10,> 10,> 10,> 10,> 10,> 10,> 10,> 10,> 10,> 10,> 10,> 10
COc1ccc(/C=C2\CN(C)C/C(=C\c3ccc(OC)cc3)C2=O)cc1,> 100,> 100,> 100,> 100,> 100,> 100,> 100,> 100,> 100,> 100,> 100,> 100,> 100,> 100,> 100,> 100,> 100,,> 100,> 100
Nc1ccc2c(=O)cc(-c3cccs3)[nH]c2n1,> 37.5,> 54.8,6.17,> 59.7,> 100,> 100,26.6,> 28.5,> 100,> 60.4,> 100,> 50.8,8.62,> 34,> 100,6.95,> 53.4,> 100,1.73,> 100
CC1CN=C(Nc2ccccc2)S1 (centres undefined),> 100,> 100,> 100,> 100,> 100,> 100,> 100,> 100,> 100,> 100,> 100,> 100,> 100,> 100,> 100,> 100,> 100,> 100,> 100,> 100
CC(O)c1cc2c(s1)C(=O)c1ccsc1C2=O (centres undefined),0.373,0.241,0.158,0.238,1.42,0.3,0.413,0.166,0.412,0.118,0.511,2.72,1.32,0.392,0.0449,3.23,0.18,0.0688,0.0275,0.264
O=C1c2ccccc2CN1c1ccc(OCCN2CCCCC2)cc1,> 10,> 10,> 10,> 10,> 10,> 10,> 10,> 10,> 10,> 10,> 10,> 10,> 10,> 10,> 10,> 10,> 10,> 10,> 10,> 10
COc1cccc2c1CCc1cc3c(N)nc(N)nc3nc1-2,7.69,20.9,9.16,28.1,> 67.7,21.3,9.7,34.9,> 21.4,23.4,25,8.09,43.2,> 34.5,10.3,29.8,9.91,31.4,18.1,33.9
CC(C)(Oc1ccccc1)C(=O)Sc1c(-c2ccccc2)c(=O)n(-c2ccccc2)c(=S)n1-c1ccccc1,> 100,> 100,45.4,> 100,> 100,> 100,82.8,> 100,> 100,> 100,> 100,> 100,> 100,57.8,> 100,> 100,> 100,> 100,> 100,
O=C1CCCCCCCCCCC1CCCCCBr (centres undefined),> 100,83.6,59.1,43.1,73.9,67.1,65.9,49.8,34.5,56.8,> 100,45.9,40,44.1,38.4,35.8,> 100,58.5,> 100,32.4
c1ccc(N=C(Nc2ccccc2)N2CCCC2)cc1,> 100,> 100,,> 100,> 100,> 100,> 100,> 100,> 100,> 100,> 100,> 100,> 100,> 100,> 100,> 100,> 100,> 100,> 100,> 100
Oc1cc2c3c(c1)CCCN3CCC2,> 10,> 10,> 10,> 10,> 10,> 10,,> 10,> 10,> 10,> 10,> 10,> 10,> 10,> 10,> 10,> 10,> 10,> 10,> 10
C1CCCCC2(CCCCCCCCC3(CCC1)OCCO3)OCCO2,> 100,> 100,> 100,> 100,> 100,> 100,3.64,> 100,> 100,> 100,> 100,> 100,> 100,> 100,> 100,> 100,> 100,> 100,> 100,> 100
COC(=O)c1ccccc1C1CN=NC12Cc1ccccc1C2=O (centres undefined),> 100,> 100,> 100,> 100,> 100,> 100,> 100,> 100,> 100,> 100,> 100,> 100,> 100,> 100,> 100,> 100,> 100,> 100,> 100,> 100
O=C(N/N=C/c1c(-c2ccccc2)no[n+]1[O-])N1CCOCC1,> 100,> 100,> 100,> 100,> 100,> 100,> 100,> 100,> 100,> 100,> 100,> 100,> 100,45.1,> 100,> 100,> 100,> 100,> 100,> 100
CCOC(=O)CCC(NC(=O)c1ccc(Oc2nc3ccccc3nc2-c2ccccc2)cc1)C(=O)OCC (centres undefined),> 100,> 100,15,> 100,> 72.1,> 100,> 100,26.2,> 100,> 100,> 100,> 49.3,33,> 100,33,> 100,> 60.7,> 100,> 85.4,> 93
CCN(CC)CCC(=O)c1ccc(C)cc1,> 100,35.8,> 100,> 100,39.8,31.4,42,> 100,52.3,33.6,36.9,36.8,63.6,82.6,42.4,63.1,> 100,38.9,51.6,
O=C(CC(C(=O)c1cccs1)c1cccs1)c1ccsc1 (centres undefined),> 100,> 100,> 100,> 100,> 100,> 100,> 100,> 100,> 100,> 100,> 100,> 100,> 100,> 100,> 100,> 100,,> 100,46.4,> 100
Nc1nc(N)c2cc(-c3ccccc3)cnc2n1,28,57.7,31.1,29.1,> 100,27.7,25.7,17.3,17.7,> 100,22.9,17.3,33.1,21.2,21.7,27.3,33,30.6,25.4,> 100
NC(=O)c1cc2ccc(O)cc2o/c1=N/NC(=O)c1ccccc1,> 100,> 100,,> 100,91.4,> 100,> 100,> 100,> 100,> 100,> 100,> 100,> 100,> 100,> 100,> 100,> 100,> 100,> 100,91.8
O=c1c2cc(-c3ccccc3)sc2nc2n1N=C(c1ccc(Cl)cc1)CS2,> 100,,> 100,> 100,> 100,> 100,> 100,> 100,> 100,> 100,> 100,> 100,> 100,> 100,> 100,> 100,> 100,> 100,> 100,
COc1cccc2c1CCc1c(-c3ccc(F)cc3)cc(-c3ccc4ccccc4n3)nc1-2,> 100,> 100,> 100,,> 100,> 100,> 100,> 100,> 100,> 100,> 100,> 100,> 100,> 100,> 100,> 100,> 100,> 100,> 100,> 100
